In publication PMC10643210, “Expanding structural diversity of 5′-aminouridine moiety of sansanmycin via mutational biosynthesis” (Frontiers in Bioengineering and Biotechnology, 2023):
pIC50: −log10 of the molar value. Values after ≈ are worked out from the molar mass of the structure shown. Read-outs that look alike come from different tables or passages of the source.

How the values were obtained:
Mtb H37Rv [1] = details: Figure 1F, ref Tran et al., 2017, cited from earlier work
M. tuberculosis H37Rv [2] = test system: M. tuberculosis H37Rv
P. aeruginosa 11 [3] = details: microdilution in Mueller-Hinton broth, 10 h at 37°C, visual read-out, triplicate
M. Phlei [4] = details: microdilution in Mueller-Hinton broth, 10 h at 37°C, visual read-out, triplicate
M. tuberculosis S17 [5] = details: clinical isolate susceptible to isoniazid and rifampicin; Alamar blue, 7H9 broth, triplicate wells
[6] = Stability in KH2PO4 buffer, HPLC; type: physicochemical; details: chemical stability, 0.05 M KH2PO4 buffer pH 6.0, room temperature (method: 28 °C), HPLC peak area, three parallel repeats
Procedure: Poor stability is one of the factors hindering the development of sansanmycin analogues into drug candidates. Thus, we conducted stability experiments followed the method reported previously ([Shi et al., 2016]) on the two active sansanmycin analogues, SS-KK-2 and SS-KK-3 (Figure 5). These experiments were carried out at room temperature with the parent compound SS-A as a control.
FIGURE 5 Stability of SS-A, SS-KK-2 and SS-KK-3. (A–C) HPLC analysis of SS-A, SS-KK-2 and SS-KK-3 at indicated days in KH2PO4 buffer (pH 6.0) at room temperature. (D) The changes of the level of SS-A, SS-KK-2 and SS-KK-3 over time. All samples were analyzed by HPLC and quantified according to the areas of peaks. Each sample underwent three parallel repeats. SS-A, black line; SS-KK-2, orange line; SS-KK-3, green line.
The stability assessment of sansanmycin A and its analogues was conducted using a previously reported method ([Shi et al., 2016]). Sansanmycins were dissolved in 0.05 M KH2PO4 buffer (with pH adjusted to 6.0 using NaOH) and incubated at 28 °C for 9 days with testing conducted every 3 days. Each sample underwent three parallel repeats. All samples were analyzed by HPLC and quantified by peak area analysis.

Mtb H37Rv [7] = details: Figure 1F, natural sansanmycins; reference not given; cited from earlier work
E. coli ΔtolC = details: microdilution in Mueller-Hinton broth, 10 h at 37°C, visual read-out, triplicate
M. tuberculosis S17 [8] = assay: microbe, parasite or virus in culture; details: Mycobacterium tuberculosis, S17, read-out: MIC M. tuberculosis S17
M. tuberculosis H37Rv [9] = assay: microbe, parasite or virus in culture; details: Mycobacterium tuberculosis, read-out: MIC M. tuberculosis H37Rv
Pae PAO1 = details: Figure 1F; ref Okamoto et al., 2012; cited from earlier work
Pae PAM1020 = details: Figure 1F; ref Boojamra et al., 2001; cited from earlier work
MraY A. aeolicus = details: Figure 1F, ref Mashalidis et al., 2019, cited from earlier work
Description: (§1) FIGURE 1 Chemical structures of natural UPAs (black) and synthetic analogues with modified 5′-aminouridine moiety (blue) and their corresponding inhibitory activity. (A) The pseudo-tetrapeptide backbone of UPAs. (B) The chemical structures of 5′-aminouridine of natural UPAs. (C–E) The chemical structures of modified 5′-aminouridine of synthetic analogues. (F) Detailed information on structure and inhibitory activities of natural UPAs and synthesized derivatives. Pae, Pseudomonas aeruginosa; Mtb, Mycobacterium tuberculosis; B. subtilis, Bacillus subtilis; S. aureus, Staphylococcus aureus; A. ae ...

MraY B. subtilis = details: Figure 1F; ref Inukai et al., 1993; cited from earlier work
Description: as §1

M. Phlei [10] = assay: microbe, parasite or virus in culture; details: Mycolicibacterium phlei, 10 h, read-out: MIC M. Phlei
P. aeruginosa 11 [11] = assay: microbe, parasite or virus in culture; details: Pseudomonas aeruginosa, 11, 10 h, read-out: MIC P. aeruginosa 11

## Dihydrosansanmycin B
Mtb H37Rv [1]; value in brackets
  MIC50 (Mtb H37Rv): 0.30 ± 0.07 µM
Mtb H37Rv [1]
  MIC50 (Mtb H37Rv): 0.25 µg/mL

## CSCC[C@H](NC(=O)N[C@@H](Cc1c[nH]c2ccccc12)C(=O)O)C(=O)N[C@H](C(=O)N/C=C1/C[C@@H](O)[C@H](n2ccc(=O)[nH]c2=O)O1)[C@H](C)N(C)C(=O)[C@@H](N)Cc1cccc(O)c1 [SS-A, sansanmycin A]
M. tuberculosis H37Rv [2]
  MIC M. tuberculosis H37Rv: 16 µg/mL (≈ 18.5 µM)
P. aeruginosa 11 [3]
  MIC P. aeruginosa 11: 16 µg/mL (≈ 18.5 µM)
M. Phlei [4]
  MIC M. Phlei: 64 µg/mL (≈ 74.1 µM)
M. tuberculosis S17 [5]
  MIC M. tuberculosis S17: 16 µg/mL (≈ 18.5 µM)
[6]
  residual quantities after 9 days of incubation: below 70%
Mtb H37Rv [7]
  MIC (Mtb H37Rv): 16 µg/mL (≈ 18.5 µM)
E. coli ΔtolC
  MIC E. coli ΔtolC: 4 µg/mL (≈ 4.63 µM)

## NNC(=O)c1ccncc1 [INH, isoniazid]
M. tuberculosis S17 [8]
  MIC: 0.03 µg/mL (≈ 0.219 µM)
M. tuberculosis H37Rv [9]
  MIC: 0.03 µg/mL (≈ 0.219 µM)

## Sansanmycin B
Mtb H37Rv [7]
  MIC (Mtb H37Rv): 8 µg/mL

## Dihydrosansanmycin A
Mtb H37Rv [1]; value in brackets
  MIC50 (Mtb H37Rv): 0.50 ± 0.05 µM
Mtb H37Rv [1]
  MIC50 (Mtb H37Rv): 0.43 µg/mL

## CC(=O)NC[C@H]1CN(c2ccc(N3CCOCC3)c(F)c2)C(=O)O1 [LZD, linezolid]
M. tuberculosis S17 [8]
  MIC: 0.25 µg/mL (≈ 0.741 µM)
M. tuberculosis H37Rv [9]
  MIC: 0.25 µg/mL (≈ 0.741 µM)

## CSCC[C@H](NC(=O)N[C@@H](Cc1c[nH]c2ccccc12)C(=O)O)C(=O)N[C@H](C(=O)NC[C@H]1O[C@@H](n2ccc(=O)[nH]c2=O)C[C@@H]1O)[C@H](C)N(C)C(=O)[C@@H](N)Cc1cccc(O)c1 [SS-KK-1]
M. tuberculosis H37Rv [2]
  MIC M. tuberculosis H37Rv: >64 µg/mL
P. aeruginosa 11 [3]
  MIC P. aeruginosa 11: >32 µg/mL
M. Phlei [4]
  MIC M. Phlei: >32 µg/mL
M. tuberculosis S17 [5]
  MIC M. tuberculosis S17: >64 µg/mL
E. coli ΔtolC
  MIC E. coli ΔtolC: >32 µg/mL

## 3′-hydroxypacidamycin D
Pae PAO1
  MIC (Pae PAO1): 32 µg/mL

## Pacidamycin D
Pae PAO1
  MIC (Pae PAO1): 64 µg/mL
Pae PAM1020
  MIC (Pae PAM1020): 64 µg/mL

## Sansanmycin C
Mtb H37Rv [7]
  MIC (Mtb H37Rv): > 32 µg/mL

## 3′-hydroxymureidomycin A
MraY A. aeolicus; value in brackets
  pIC50: 7.28
MraY A. aeolicus
  IC50 (MraY A. aeolicus): 0.045 µg/mL

## CSCC[C@H](NC(=O)N[C@@H](Cc1c[nH]c2ccccc12)C(=O)O)C(=O)N[C@H](C(=O)NC[C@H]1O[C@@H](n2ccc(=O)[nH]c2=O)C[C@@H]1O)[C@H](C)N(C)C(=O)[C@@H](N)Cc1ccc(O)cc1 [SS-KK-2]
M. tuberculosis H37Rv [2]
  MIC M. tuberculosis H37Rv: 32 µg/mL (≈ 37 µM)
P. aeruginosa 11 [3]
  MIC P. aeruginosa 11: >32 µg/mL
M. Phlei [4]
  MIC M. Phlei: >32 µg/mL
M. tuberculosis S17 [5]
  MIC M. tuberculosis S17: 32 µg/mL (≈ 37 µM)
[6]; 9 days, tested every 3 days
  stability compared with SS-A: slightly higher level of stability than SS-A
E. coli ΔtolC
  MIC E. coli ΔtolC: 1 µg/mL (≈ 1.15 µM)

## Mureidomycin A
MraY B. subtilis
  IC50 (MraY B. subtilis): 0.05 µg/mL

## Dihydrosansanmycin C
Mtb H37Rv [1]; value in brackets
  MIC50 (Mtb H37Rv): 18.5 ± 0.70 µM
Mtb H37Rv [1]
  MIC50 (Mtb H37Rv): 16 µg/mL

## Dihydropacidamycin D
Pae PAM1020
  MIC (Pae PAM1020): 64 µg/mL

## CO[C@H]1/C=C/O[C@@]2(C)Oc3c(C)c(O)c4c(O)c(c(/C=N/N5CCN(C)CC5)c(O)c4c3C2=O)NC(=O)/C(C)=C\C=C\[C@H](C)[C@H](O)[C@@H](C)[C@@H](O)[C@@H](C)[C@H](OC(C)=O)[C@@H]1C [RIF, rifampicin]
M. tuberculosis S17 [8]
  MIC: 0.25 µg/mL (≈ 0.304 µM)
M. tuberculosis H37Rv [9]
  MIC: 0.125 µg/mL (≈ 0.152 µM)

## [H]/N=C(/N)N[C@H]1[C@H](O)[C@@H](O)[C@H](O[C@@H]2O[C@@H](C)[C@](O)(C=O)[C@H]2O[C@@H]2O[C@@H](CO)[C@H](O)[C@@H](O)[C@@H]2NC)[C@@H](N/C(N)=N\[H])[C@@H]1O [streptomycin]
M. Phlei [10]
  MIC: 16 µg/mL (≈ 27.5 µM)
P. aeruginosa 11 [11]
  MIC: 8 µg/mL (≈ 13.8 µM)
E. coli ΔtolC
  MIC E. coli ΔtolC: 2 µg/mL (≈ 3.44 µM)
